For 1 molecule, EC50 results are on record in patent publication US9657092B2, “S100A4 antibodies and therapeutic uses thereof” (LYKERA BIOMED SA, priority 2010, dated 2017).

pEC50: −log10 of the molar value.

In this assay the test system is MiaPACA-2 cells. In words: Cytotoxic effect measured by hexosaminidase activity. The class given is cell-based. The note with it: Homo sapiens, MIA PaCa-2; gemcitabine alone, 72 h; read-out: EC50 cell viability. On the procedure:
Briefly, MiaPACA-2 cells were plated onto 96-well cell culture plates (5×10^3 cells/well) in 50 μl of DMEM medium. […] After removing the culture media cells were washed once with PBS. Sixty microliters of substrate solution (p-nitrophenol-N-acetyl-beta-D-glucosamide 7.5 mM, sodium citrate 0.1 M, 0.25% Triton X-100, pH 5.0) was added to each well and plates were incubated at 37° C. for 2 hours; after this incubation time, a bright yellow appears and plates were developed by adding 90 μl of developer solution (Glycine 50 mM, EDTA 5 mM, pH 10.4), and the absorbance at 450 nm was measured by using a multi-well scanning spectrophotometer. Data analysis was done normalizing the results with the negative control (untreated cells) which were considered as 100% of viability.
Curves were adjusted using a sigmoidal dose-response (variable slope) equation, and EC50 values were obtained from the equation: Y=Bottom+(Top−Bottom)/(1+10^((Log EC50−X)*HillSlope)) where X is the logarithm of concentration and Y is the response. Y starts at Bottom and goes to Top with a sigmoid shape.

Turning to `Nc1ccn([C@@H]2O[C@H](CO)[C@@H](O)C2(F)F)c(=O)n1` [gemcitabine], the pEC50 was 8.08.
